System: blood coagulation components
Conditions: dog, in vivo
Experimental: The following parameters and endpoints were evaluated in this study: mortality, body weight, physical, clinical pathology parameters (hematology and coagulation), […], and bioanalytical parameters.
The vehicle and test article were administered via intravenous (IV) infusion once on Day 1 for 135 minutes (initiated 30 minutes prior to starting the Cardiopulmonary Bypass (CPB) and continuing for 105 minutes of CPB). Group 2 animals received a […] IV bolus dose immediately prior to the start of IV infusion. Group 3, 4, and 5 animals received a 10 mg/kg IV bolus dose prior to the start of the IV infusion; with the CPB machine primed with test article at 10 μg/mL.
Infusion of the Compound 1 was started 30 minutes prior to the animal being placed on the CPB pump. The CPB pump was primed with 0.9% saline.
Venous and arterial sheaths were flushed with the Compound 1 at a concentration of 10 μg/mL. An IV bolus dose of the test article was administered immediately prior to the start of the infusion. Infusion of Compound 1 was started 30 minutes prior to the animal being placed on the CPB pump. The CPB […] was primed with 10 μg/mL of the Compound 1 prior to initiation of the CPB pump.
An IV bolus dose of the Compound 1 was administered immediately prior to the start of the infusion. […]

C[C@@H](NC(=O)N1C(=O)[C@H](Cc2ccnc(N)c2)[C@H]1C(=O)O)C1CCCCC1 [Compound 1, (2S,3R)-3-((2-aminopyridin-4-yl)methyl)-1-(((R)-1-cyclohexylethyl)carbamoyl)-4-oxoazetidine-2-carboxylic acid]
morbidity or mortality: not associated with any increases in morbidity or mortality
mortality (survival to study termination): All animals survived to study termination

— US20210261524A1, “THERAPEUTIC COMPOUNDS AND COMPOSITIONS” (Exithera Pharmaceuticals, Inc., priority 2018, published 2021)
